Measured values taken from ChEMBL document CHEMBL5108051, “Improving the Antimicrobial Performance of Amphiphilic Cationic Antimicrobial Peptides Using Glutamic Acid Full-Scan and Positive Charge Compensation Strategies” (J Med Chem, 2022).
Converted amounts (≈) assume the structure as drawn. The source made the active and inactive calls. No cut-off for these calls is given here. Bridge positions count the residues as written; N and C are the ends. Square brackets hold non-standard residues; d marks the D form. Peptide text beside a SMILES is read from it. * marks the point of attachment. X1 = CC[C@H](C)CCCCC(=O)*; Dab = NCC[C@H](N)C(=O)O

How the values were obtained:
Erythrocyte = test: Hemolytic activity against mouse RBC measured after 1 hrs; type: toxicity, cell-based
Staphylococcus aureus [1] = test: Antibacterial activity against gentamicin resistant Staphylococcus aureus ATCC 25923 assessed as fractional inhibitory concentration index in presence of rifampin by checkerboard assay; type: functional
Escherichia coli [2] = test: Antibacterial activity against Escherichia coli ATCC 25922 assessed as fractional inhibitory concentration index in presence of kanamycin by checkerboard assay; type: functional
Cell membrane [3] = test: Induction of cell membrane disruption in Staphylococcus aureus ATCC 25923 assessed as cell morphological damage measured after 120 mins by […] electron microscope analysis; type: subcellular
Bacillus subtilis = test: Antibacterial activity against Bacillus subtilis ATCC 23857 assessed as growth inhibition measured after 18 to 24 hrs by CLSI based broth microdilution method; type: functional; conditions: time 18-24 hrs
Klebsiella pneumoniae = test: Antibacterial activity against Klebsiella pneumoniae ATCC 700603 assessed as growth inhibition measured after 18 to 24 hrs by CLSI based broth microdilution method; type: functional; conditions: time 18-24 hrs
Staphylococcus aureus [4] = test: Antibacterial activity against Staphylococcus aureus ATCC 25923 assessed as growth inhibition measured after 18 to 24 hrs by CLSI based broth microdilution method; type: functional; conditions: time 18-24 hrs
Escherichia coli [5] = test: Antibacterial activity against gentamicin resistant Escherichia coli ATCC 25922 assessed as fractional inhibitory concentration index in presence of vancomycin by checkerboard assay; type: functional
Staphylococcus aureus [6] = test: Antibacterial activity against rifampin resistant Staphylococcus aureus ATCC 25923 assessed as fractional inhibitory concentration index in presence of rifampin by checkerboard assay; type: functional
Cell membrane [7] = test: Induction of cytoplasmic membrane depolarization in Escherichia coli ATCC 25922 assessed as increase in fluorescence intensity measured within 1 min by DiSC3-5 dye based fluorescence method; type: subcellular
Escherichia coli [8] = test: Antibacterial activity against Escherichia coli ATCC 25922 assessed as fractional inhibitory concentration index in presence of rifampin by checkerboard assay; type: functional
Escherichia coli [9] = test: Antibacterial activity against rifampin resistant Escherichia coli ATCC 25922 assessed as fractional inhibitory concentration index in presence of rifampin by checkerboard assay; type: functional
Cell membrane [10] = test: Induction of cell membrane disruption in Escherichia coli ATCC 25922 assessed as cell morphological damage measured after 120 mins by […] electron microscope analysis; type: subcellular
Escherichia coli [11] = test: Antibacterial activity against gentamicin resistant Escherichia coli ATCC 25922 assessed as fractional inhibitory concentration index in presence of kanamycin by checkerboard assay; type: functional
Staphylococcus aureus [12] = test: Antibacterial activity against rifampin resistant Staphylococcus aureus ATCC 25923 assessed as fractional inhibitory concentration index in presence of vancomycin by checkerboard assay; type: functional
Staphylococcus aureus [13] = test: In vivo antimicrobial activity against Staphylococcus aureus ATCC 25923 infected in BALB/C mouse pulmonary infection model at 5 to 10 mg/kg, ip; type: functional, organism-based; conditions: dose 5-10 mg/kg
Cell membrane [14] = test: Induction of cell membrane disruption in Escherichia coli ATCC 25922 assessed as increase in PI uptake measured after 30 to 120 mins by propidium iodide staining based FACS flow cytometry analysis (reference value: 6.0 %); type: subcellular; conditions: time 30-120 min
Escherichia coli [15] = test: Antibacterial activity against Escherichia coli ATCC 25922 assessed as fractional inhibitory concentration index in presence of gentamicin by checkerboard assay; type: functional
Escherichia coli [16] = test: Antibacterial activity against gentamicin resistant Escherichia coli ATCC 25922 assessed as fractional inhibitory concentration index in presence of gentamicin by checkerboard assay; type: functional
Cell membrane [17] = test: Induction of outer membrane permeabilization to NPN in Escherichia coli ATCC 25922 cells assessed as increase in fluorescence intensity by NPN fluorescent dye based microplate reader assay; type: subcellular
Escherichia coli [18] = test: Antibacterial activity against rifampin resistant Escherichia coli ATCC 25922 assessed as fractional inhibitory concentration index in presence of kanamycin by checkerboard assay; type: functional
Staphylococcus aureus [19] = test: Antibacterial activity against Staphylococcus aureus ATCC 25923 assessed as fractional inhibitory concentration index in presence of vancomycin by checkerboard assay; type: functional
Escherichia coli [20] = test: Induction of cell membrane damage in Escherichia coli ATCC 25922 assessed as increase in nucleic acid leakage by microplate reader assay; type: functional, organism-based; conditions: time 0-6 hrs, TDE = time-dependent effect
Staphylococcus aureus [21] = test: Antibacterial activity against Staphylococcus aureus ATCC 25923 assessed as fractional inhibitory concentration index in presence of kanamycin by checkerboard assay; type: functional
Staphylococcus aureus [22] = test: Antibacterial activity against gentamicin resistant Staphylococcus aureus ATCC 25923 assessed as fractional inhibitory concentration index in presence of gentamicin by checkerboard assay; type: functional
[23] = Acute toxicity in BALB/c mouse assessed as pathological changes in heart at 20 to 80 mg/kg, ip administered as single dose measured for 7 days by H and E staining method; type: organism-based; conditions: in vivo, 168 h, dose 20-80 mg/kg, time 7 day
Cell membrane [24] = test: Induction of inner membrane permeabilization in Escherichia coli ML-35 ATCC 43837 assessed as increase in absorbance at 1 to 4 times MIC measured at 420 nm in presence of ONPG by microplate reader assay; type: subcellular; conditions: DDE = dose-dependent effect
Staphylococcus aureus [25] = test: Antibacterial activity against rifampin resistant Staphylococcus aureus ATCC 25923 assessed as fractional inhibitory concentration index in presence of kanamycin by checkerboard assay; type: functional
Escherichia coli [26] = test: Antibacterial activity against Escherichia coli ATCC 25922 assessed as growth inhibition measured after 18 to 24 hrs by CLSI based broth microdilution method; type: functional; conditions: time 18-24 hrs
Staphylococcus aureus [27] = test: Antibacterial activity against rifampin resistant Staphylococcus aureus ATCC 25923 assessed as fractional inhibitory concentration index in presence of gentamicin by checkerboard assay; type: functional
Staphylococcus aureus [28] = test: Antibacterial activity against gentamicin resistant Staphylococcus aureus ATCC 25923 assessed as fractional inhibitory concentration index in presence of kanamycin by checkerboard assay; type: functional
Pseudomonas aeruginosa = test: Antibacterial activity against Pseudomonas aeruginosa ATCC 27853 assessed as growth inhibition measured after 18 to 24 hrs by CLSI based broth microdilution method; type: functional; conditions: time 18-24 hrs
[29] = Stability of the compound in mouse serum at 10 mM assessed as half life by RP-HPLC analysis; type: ADME, cell-free
Staphylococcus aureus [30] = test: Induction of cell membrane damage in Staphylococcus aureus ATCC 25923 assessed as increase in nucleic acid leakage by microplate reader assay; type: functional, organism-based; conditions: time 0-6 hrs, TDE = time-dependent effect
Staphylococcus aureus [31] = test: Antibacterial activity against Staphylococcus aureus ATCC 25923 assessed as fractional inhibitory concentration index in presence of gentamicin by checkerboard assay; type: functional
[32] = Acute toxicity in BALB/c mouse assessed as pathological changes in liver at 20 to 80 mg/kg, ip administered as single dose measured for 7 days by H and E staining method; type: organism-based; conditions: in vivo, 168 h, dose 20-80 mg/kg, time 7 day
Cell membrane [33] = test: Induction of cell membrane disruption in Escherichia coli ATCC 25922 assessed as cell morphological damage measured after 30 mins by […] electron microscope analysis; type: subcellular
Escherichia coli [34] = test: Antibacterial activity against Escherichia coli ATCC 25922 assessed as fractional inhibitory concentration index in presence of vancomycin by checkerboard assay; type: functional
Escherichia coli [35] = test: Antibacterial activity against Escherichia coli ATCC 25922 assessed as resistance development measured after 15 passages at sub-MIC concentration by resistance development assay; type: functional, organism-based
Escherichia coli [36] = test: Antibacterial activity against rifampin resistant Escherichia coli ATCC 25922 assessed as fractional inhibitory concentration index in presence of gentamicin by checkerboard assay; type: functional

Structure (SMILES) | MHC10 (Erythrocyte) [µM] | fractional inhibitory concentration index (FICI) (Staphylococcus aureus [1]) | fractional inhibitory concentration index (FICI) (Escherichia coli [2]) | Activity (Cell membrane [3]) | MIC (Bacillus subtilis) [µM] | MIC (Klebsiella pneumoniae) [µM] | MIC (Staphylococcus aureus [4]) [µM] | fractional inhibitory concentration index (FICI) (Escherichia coli [5]) | fractional inhibitory concentration index (FICI) (Staphylococcus aureus [6]) | Activity (Cell membrane [7]) | fractional inhibitory concentration index (FICI) (Escherichia coli [8]) | fractional inhibitory concentration index (FICI) (Escherichia coli [9]) | Activity (Cell membrane [10]) | fractional inhibitory concentration index (FICI) (Escherichia coli [11]) | fractional inhibitory concentration index (FICI) (Staphylococcus aureus [12]) | Activity (Staphylococcus aureus [13]) | Activity (Cell membrane [14]) [%] | fractional inhibitory concentration index (FICI) (Escherichia coli [15]) | fractional inhibitory concentration index (FICI) (Escherichia coli [16]) | Activity (Cell membrane [17]) | further results
CC(C)C[C@H](NC(=O)[C@H](CC(C)C)NC(=O)[C@H](CCC(=O)O)NC(=O)[C@H](CCCCN)NC(=O)[C@H](CC(C)C)NC(=O)[C@H](CC(C)C)NC(=O)[C@H](CCCCN)NC(=O)[C@H](C)NC(=O)[C@@H](NC(=O)[C@H](CCCCN)NC(=O)[C@@H]1CCCN1C(=O)[C@H](CC(C)C)NC(=O)[C@@H](N)Cc1ccccc1)C(C)C)C(N)=O (H-FLPKVAKLLKELL-NH2) | 202 | 0.625 | 0.625 | Active | 4 (≈ 6.04 µg/mL) | 16 (≈ 24.2 µg/mL) | 8 (≈ 12.1 µg/mL) | 0.75 | 0.75 | Active | 0.625 | 0.75 | Active | 1.25 | 1 | Active | 83.1 | 0.5 | 1.25 | Active | fractional inhibitory concentration index (FICI) (Escherichia coli [18]): 0.75; fractional inhibitory concentration index (FICI) (Staphylococcus aureus [19]): 0.75; Activity (Escherichia coli [20]): Tde; fractional inhibitory concentration index (FICI) (Staphylococcus aureus [21]): 0.625; fractional inhibitory concentration index (FICI) (Staphylococcus aureus [22]): 0.75; Activity [23]: Non-Toxic; Activity (Cell membrane [24]): Dde; fractional inhibitory concentration index (FICI) (Staphylococcus aureus [25]): 0.625; MIC (Escherichia coli [26]): 8 µM (≈ 12.1 µg/mL); fractional inhibitory concentration index (FICI) (Staphylococcus aureus [27]): 0.5; fractional inhibitory concentration index (FICI) (Staphylococcus aureus [28]): 1; MIC (Pseudomonas aeruginosa): 8 µM (≈ 12.1 µg/mL); half-life at 10000 µM [29]: 9.64 h; Activity (Staphylococcus aureus [30]): Tde; fractional inhibitory concentration index (FICI) (Staphylococcus aureus [31]): 0.625; Activity [32]: Non-Toxic; Activity (Cell membrane [33]): Active; fractional inhibitory concentration index (FICI) (Escherichia coli [34]): 0.375; Activity (Escherichia coli [35]): Active; fractional inhibitory concentration index (FICI) (Escherichia coli [36]): 0.75
CC[C@H](C)CCCCC(=O)N[C@@H](CCN)C(=O)N[C@H](C(=O)N[C@@H](CCN)C(=O)N[C@H]1CCNC(=O)[C@H]([C@@H](C)O)NC(=O)[C@H](CCN)NC(=O)[C@H](CCN)NC(=O)[C@H](CC(C)C)NC(=O)[C@@H](Cc2ccccc2)NC(=O)[C@H](CCN)NC1=O)[C@@H](C)O (X1-[Dab]T[Dab][Dab][Dab][dF]L[Dab][Dab]T; lactam 4-C) | > 256 | 0.5625 | 0.375 | Active | 4 (≈ 4.81 µg/mL) | 4 (≈ 4.81 µg/mL) | 16 (≈ 19.3 µg/mL) | 0.3125 | 1 | Active | 0.1875 | 0.5625 | Active | 0.375 | 1 | Active | 38.5 | 0.375 | 0.625 | Active | fractional inhibitory concentration index (FICI) (Escherichia coli [18]): 0.375; fractional inhibitory concentration index (FICI) (Staphylococcus aureus [19]): 1.0625; Activity (Escherichia coli [20]): Tde; fractional inhibitory concentration index (FICI) (Staphylococcus aureus [21]): 0.75; fractional inhibitory concentration index (FICI) (Staphylococcus aureus [22]): 0.5; Activity [23]: Non-Toxic; Activity (Cell membrane [24]): Dde; fractional inhibitory concentration index (FICI) (Staphylococcus aureus [25]): 0.625; MIC (Escherichia coli [26]): 4 µM (≈ 4.81 µg/mL); fractional inhibitory concentration index (FICI) (Staphylococcus aureus [27]): 0.375; fractional inhibitory concentration index (FICI) (Staphylococcus aureus [28]): 0.625; MIC (Pseudomonas aeruginosa): 2 µM (≈ 2.41 µg/mL); half-life at 10000 µM [29]: 12.5 h; Activity (Staphylococcus aureus [30]): Tde; fractional inhibitory concentration index (FICI) (Staphylococcus aureus [31]): 0.75; Activity [32]: Non-Toxic; Activity (Cell membrane [33]): Active; fractional inhibitory concentration index (FICI) (Escherichia coli [34]): 0.375; Activity (Escherichia coli [35]): Active; fractional inhibitory concentration index (FICI) (Escherichia coli [36]): 0.375
